These results are taken from US5405843A, “Quinoline derivatives” (Mitsui Toatsu Chemicals, Incorporated, priority 1988, dated 1995).

Assay [1] concerns Adriamycin resistant strain 2780 AD cells of human ovarian cancer A2780 cells. Briefly: Potentiating effect on incorporation of 3H-vincristine into adriamycin-resistant cancer cells. The format is cell-based. The conditions noted are these: 20 nM 3H-vincristine; for activity at 1 µg/mL / activity at 10 µg/mL: Homo sapiens, 2780AD, 2 h, control = 100, read-out: 3H-vincristine accumulation; for activity at 10 µg/mL: compound 10 μg/ml. As to the method:
Potentiating Effect of the Compounds on Incorporation of Anticancer Drugs into Drug-resistant Cancer Cells
Adriamycin resistant strain 2780 AD cells of human ovarian cancer A2780 cells (A. M. Rogan et al., Science 224, 994-996, 1984) were suspended at a concentration of 1×10^6 /ml in RPMI-1640 medium supplemented with 5% fetal calf serum, and 1 ml of the cancer cell suspension was dispensed into each well of a multi-well culture plate (24 wells, […] in diameter) and then incubated at 37° C. in an atmosphere of 5% CO2. After 24 hours incubation, the medium in each well was replaced by 0.5 ml of RPMI-1640 medium supplemented containing 20 nM ^3 H-vincristine (1×10^4 dpm/pmol), 5% fetal calf serum and 10 mM Hepes buffer. Five microliters of a solution of the compound to be tested, which had been dissolved in DMSO and diluted with […] (at a concentration of 1.0 microgram/ml or 10.0 micrograms/ml), was added to each well and the incubation was continued at 37° C. in 5% CO2 for 2 hours. The resultant cells were washed in cold saline-phosphate buffer. In each well was added 0.5 ml of 0.2N NaOH, and the resulting cell suspension in each well was independently transferred into a vial and then heated in a water bath at 56° C. for 30-60 minutes to dissolve the cells. After adding 4 ml of acid aquazole 2, the amount of ^3 H-vincristine incorporated into the cells was determined by a fluid scintillation counter.

Assay [2] deals with Vincristine-resistant strain P388/VCR cells of mouse leukemia P388 cells. The assay is described as follows: Potentiating effect on vincristine in mice having vincristine-resistant mouse leukemia (survival). In kind it is in vivo, mouse (female CDFI mice). The conditions noted are these: compound 30 mg/kg + vincristine 100 ug/kg, peritoneal, once a day for 5 days; for T/C (rate of life prolongation): control = 100.

Turning to `CN(CCN(C)C(c1ccccc1)c1ccccc1)CC(O)COc1cccc2ncccc12` (centres unmarked) [Example 3, 5-(3-[N-(2-(N-Diphenylmethyl-N-methylamino)ethyl)-N-methylamino]-2-hydroxypropoxy)quinoline], the activity at 1 µg/mL in assay [1] (compound 1 μg/ml) was found to be 731%. For the same compound, in assay [1], the activity at 10 µg/mL stood at 774%. In assay [2], the Average surviving period is 11.0 ± 0.6 days and the “T/C (rate of life prolongation)” value is reported as 100%.
For `OC(COc1cccc2ncccc12)CN1CCCN(C(c2ccccc2)c2ccccc2)CC1` (centres unmarked) [Example 4, 5-[3-(4-Diphenylmethylhomopiperazine-1-yl)-2-hydroxypropoxy]quinoline], in that order: 438%, 770%, 11.8 ± 0.4 days and 107%.
With `Cc1cc(C)c2c(OCC(O)CN3CCN(C(c4ccccc4)c4ccccc4)CC3)cccc2n1` (centres unmarked) [Example 5, 2,4-Dimethyl-5-[3-(4-diphenylmethylpiperazine-1-yl)-2-hydroxypropoxy]quinoline], the activity at 1 µg/mL in assay [1] (compound 1 μg/ml) worked out at 732%. Also, in assay [2], the Average surviving period was found to be 12.8 ± 0.8 days and the “T/C (rate of life prolongation)” value was found to be 124%.
For the compound `OC(COc1cccc2ncccc12)CN1CCN(C2c3ccccc3COc3ccccc32)CC1` (centres unmarked) [Example 6, 5-[3-(4-(6,11-Dihydrodibenzo[b,e]oxepine-11-yl)piperazine-1-yl)-2-hydroxypropoxy]quinoline], in assay [2], the Average surviving period came out at 13.4 ± 0.7 days and the “T/C (rate of life prolongation)” value is reported as 128%.
In the case of `OC(COc1cccc2ncccc12)CN1CCC(C(O)(c2ccccc2)c2ccccc2)CC1` (centres unmarked) [Example 7, 5-[3-(4-(Diphenyl-hydroxymethyl)piperidine-1-yl)-2-hydroxypropoxy]quinoline], the activity at 1 µg/mL in assay [1] (compound 1 μg/ml) stood at 972%. Besides, in assay [2], the Average surviving period worked out at 12.9 ± 0.5 days and the “T/C (rate of life prolongation)” value was determined as 123%.
Regarding `COc1ccc2c(OCC(O)CN3CCN(C(=O)C(c4ccccc4)c4ccccc4)CC3)cccc2n1` (centres unmarked) [Example 8, 5-[3-(4-(2,2-Diphenylacetyl)piperazine-1-yl) -2-hydroxypropoxy]-2-methoxyquinoline], the activity at 1 µg/mL in assay [1] (compound 1 μg/ml) came to 394%. For the same compound, the activity at 10 µg/mL in assay [1] was found to be 863%. In assay [2], the Average surviving period was determined as 12.2 ± 0.6 days and the “T/C (rate of life prolongation)” value is reported as 115%.
Turning to `COc1ccc2c(OCC(O)CN3CCN(C4c5ccccc5CCc5ccccc54)CC3)cccc2n1` (centres unmarked) [Example 9, 5-[3-(4-(Dibenzosuberane-5-yl)piperazine-1-yl)-2-hydroxypropoxy]-2-methoxyquinoline], in assay [1] (compound 1 μg/ml), the activity at 1 µg/mL was determined as 721%. For the same compound, the activity at 10 µg/mL in assay [1] is 947%. Moreover, in assay [2], the Average surviving period is given as 14.2 ± 0.6 days and the “T/C (rate of life prolongation)” value is 134%.
For `CCN(CCN(CC)C(c1ccccc1)c1ccccc1)CC(O)COc1cccc2ncccc12` (centres unmarked) [Example 10, 5-(3-[N-(2-(N-Diphenylmethyl-N-ethylamino)ethyl)-N-ethylamino]-2-hydroxypropoxy)quinoline], in that order: 642%, 932%, 12.3 ± 1.4 days and 112%.
In the case of `COc1ccc(C(c2cccc(OC)c2OC)N2CCN(CC(O)COc3cccc4ncccc34)CC2)cc1OC` (centres unmarked) [Example 11, 5-[3-(4-(2,3,3',4'-Tetramethoxydiphenylmethyl)piperazine-1-yl)-2-hydroxypropoxy]quinoline], in assay [1] (compound 1 μg/ml), the activity at 1 µg/mL was determined as 735%. Besides, in assay [2], the Average surviving period is listed as 12.1 ± 0.5 days and the “T/C (rate of life prolongation)” value is reported as 115%.
With `CCc1cnc2cccc(OCC(O)CN3CCN(C(c4ccccc4)c4ccccc4)CC3)c2c1` (centres unmarked) [Example 12, 3-Ethyl-5-[3-(4-diphenylmethylpiperazine-1-yl)-2-hydroxypropoxy]quinoline], the activity at 1 µg/mL in assay [1] (compound 1 μg/ml) amounted to 568%. For the same compound, the activity at 10 µg/mL in assay [1] is 831%. Besides, in assay [2], the Average surviving period was found to be 12.5 ± 0.5 days and the “T/C (rate of life prolongation)” value was 114%.
For `OC(COc1cccc2ncccc12)CN1CCC(=C(c2ccccc2)c2ccccc2)CC1` (centres unmarked) [Example 13, 5-[3-(4-(Diphenylmethylene)piperidine-1-yl)-2-hydroxypropoxy]quinoline], the activity at 1 µg/mL in assay [1] (compound 1 μg/ml) stood at 517%. For the same compound, in assay [1], the activity at 10 µg/mL came out at 805%. Besides, in assay [2], the Average surviving period was 15.3 ± 0.5 days and the “T/C (rate of life prolongation)” value is on record as 139%.
Regarding `OC(COc1cccc2ncccc12)CN1CCN(C(c2ccccc2)c2ccccn2)CC1` (centres unmarked) [Example 15, 5-[2-Hydroxy-3-(4-(phenyl-2-pyridylmethyl)piperazine-1-yl)propoxy]quinoline], the activity at 1 µg/mL in assay [1] (compound 1 μg/ml) was 840%. Also, in assay [2], the Average surviving period was determined as 12.3 ± 0.4 days and the “T/C (rate of life prolongation)” value amounted to 117%.
With `O=C(C(c1ccccc1)c1ccccc1)N1CCN(CC(O)COc2cccc3ncccc23)CC1` (centres unmarked) [Example 16, 5-[3-(4-(2,2-Diphenylacetyl)piperazine-1-yl)-2-hydroxypropoxy]quinoline], the activity at 1 µg/mL in assay [1] (compound 1 μg/ml) came out at 850%. Also, in assay [1], the activity at 10 µg/mL was determined as 982%. In assay [2], the Average surviving period is recorded as 13.9 ± 1.4 days and the “T/C (rate of life prolongation)” value came out at 132%.
As to `OC(CNc1cccc2ncccc12)CN1CCN(C(c2ccccc2)c2ccccc2)CC1` (centres unmarked) [Example 27, 5-[3-(4-Diphenylmethylpiperazine-1-yl)-2-hydroxypropylamino]quinoline], in assay [2], the Average surviving period was 12.3 ± 0.3 days and the “T/C (rate of life prolongation)” value was found to be 119%.
Regarding `CN(CCC=C1c2ccccc2CCc2ccccc21)CC(O)COc1cccc2ncccc12` (centres unmarked) [Example 68, 5-(3[N-{3-dibenzosuberane-5-ylidene)propy}-N-methylamino-2-hydroxypropoxy)quinoline], in assay [1] (compound 1 μg/ml), the activity at 1 µg/mL is 671%.
On to `OC(CNCCC(c1ccccc1)c1ccccc1)COc1cccc2ncccc12` (centres unmarked) [Example 69, 5-[3-(3,3-Diphenylpropylamino)-2-hydroxypropoxy]quinoline], for which, in assay [1] (compound 1 μg/ml), the activity at 1 µg/mL stood at 738%. Further, the activity at 10 µg/mL in assay [1] came to 941%.
With `OC(CNCC(c1ccccc1)c1ccccc1)COc1cccc2ncccc12` (centres unmarked) [Example 70, 5-[3-(2,2-Diphenylethylamino)-2-hydroxypropoxy]quinoline], the activity at 1 µg/mL in assay [1] (compound 1 μg/ml) came to 252%. Besides, the activity at 10 µg/mL in assay [1] was found to be 960%.
As for `CS(=O)(=O)c1ccc2c(OCC(O)CN3CCN(C4c5ccccc5CCc5ccccc54)CC3)cccc2n1` (centres unmarked) [Example 71, 2-Methylsufonyl-5-[3-(4-(dibenzosuberane-5-yl)piperazine-1-yl)-2-hydroxypropoxy]quinoline], the activity at 1 µg/mL in assay [1] (compound 1 μg/ml) worked out at 501%. The activity at 10 µg/mL in assay [1] was found to be 921%.
For `OC(COc1cccc2ncccc12)CN1CCN(C2c3ccccc3Oc3ccccc32)CC1` (centres unmarked) [Example 72, 5-[3-(4-(Xanthene-9-yl)piperazine-1-yl)-2-hydroxypropoxy]quinoline], in assay [1] (compound 1 μg/ml), the activity at 1 µg/mL worked out at 112%. Also, in assay [1], the activity at 10 µg/mL is 144%.
Consider `OC(CSc1cccc2ncccc12)CN1CCN(C(c2ccccc2)c2ccccc2)CC1` (centres unmarked) [Example 74, 5-[3-(4-Diphenylmethylpiperazine-1-yl)-2-hydroxypropylthio]qunoline], for which the 3H-vincristine accumulation in assay [1] (compound 1 μg/ml, 2 hours, control = 100, 120 min) was determined as 626%.
For the compound `OC(CSc1cccc2ncccc12)CN1CCN(C2c3ccccc3CCc3ccccc32)CC1` (centres unmarked) [Example 75, 5-[3-(4-(Dibenzosuberane-5-yl)piperazine-1-yl)-2-hydroxy-propylthio]quinoline], the activity at 1 µg/mL in assay [1] (compound 1 μg/ml) came to 587%.
With `OC(COc1cccc2nc(C(F)(F)F)cc(C(F)(F)F)c12)CN1CCN(C2c3ccccc3CCc3ccccc32)CC1` (centres unmarked) [Example 76, 5-[3-(4-(Dibenzosuberane-5-yl)piperazine-1-yl)-2-hydroxypropoxy]-2,4-bis(trifluoromethyl)quinoline], the activity at 1 µg/mL in assay [1] (compound 1 μg/ml) was 130%. The activity at 10 µg/mL in assay [1] worked out at 304%.
Take `OC(COc1cccc2ncccc12)CN1CCC(=C2c3ccccc3C=Cc3ccccc32)CC1` (centres unmarked) [Example 77, 5-[3-(4-(Dibenzosuberene-5-ylidene)piperidine-1-yl)2-hydroxypropoxy]quinoline]: in assay [2], the Average surviving period was 13.8 ± 1.2 days and the “T/C (rate of life prolongation)” value worked out at 129%.
Consider `OC(COc1cccc2ncccc12)CN1CCC(C2(O)c3ccccc3C=Cc3ccccc32)CC1` (centres unmarked) [Example 79, 5-[2-Hydroxy-3-(4-(5-hydroxydibenzosuberene-5-yl)piperidine-1-yl)propoxy]quinoline], for which the activity at 1 µg/mL in assay [1] (compound 1 μg/ml) was 841%. In assay [1], the activity at 10 µg/mL is 963%.
